What follows are compounds tested against Carbonic anhydrase 9 (Homo sapiens, UniProt Q16790).
Description: Inhibition of human recombinant carbonic anhydrase-9 preincubated for 10 mins by stopped-flow CO2 hydration assay

In order of falling Ki:
1. NS(=O)(=O)c1ccc(NC(=O)/C=C/c2cc(Cl)cc(Cl)c2)cc1  229 nM
2. NS(=O)(=O)c1ccc(NC(=O)/C=C/c2ccc(F)c(F)c2)cc1  151 nM
3. COc1cc(/C=C/C(=O)Nc2ccc(S(N)(=O)=O)cc2)cc(OC)c1OC  126 nM
4. CC(C)Oc1ccc(/C=C/C(=O)Nc2ccc(S(N)(=O)=O)cc2)cc1  20.3 nM
5. NS(=O)(=O)c1ccc(NC(=O)/C=C/c2ccc(Cl)cc2)cc1  12.6 nM
6. NS(=O)(=O)c1ccc(NC(=O)/C=C/c2cccc(C(F)(F)F)c2)cc1  11.6 nM
7. COc1ccc(/C=C/C(=O)Nc2ccc(S(N)(=O)=O)cc2)c(F)c1  11.2 nM
8. COc1ccc(/C=C/C(=O)Nc2ccc(S(N)(=O)=O)cc2)c(OC)c1  9.6 nM
9. COc1ccc(/C=C/C(=O)Nc2ccc(S(N)(=O)=O)cc2)cc1OC  9.3 nM
10. N#Cc1ccc(/C=C/C(=O)Nc2ccc(S(N)(=O)=O)cc2)cc1  8 nM
11. COc1ccc(/C=C/C(=O)Nc2ccc(S(N)(=O)=O)cc2)cc1  5.3 nM
12. NS(=O)(=O)c1ccc(NC(=O)/C=C/c2ccc(OC(F)(F)F)cc2)cc1  4.9 nM
13. NS(=O)(=O)c1ccc(NC(=O)/C=C/c2ccc(C(F)(F)F)cc2)cc1  2.4 nM
14. NS(=O)(=O)c1ccc(NC(=O)/C=C/c2ccc(F)cc2)cc1  2.4 nM
15. NS(=O)(=O)c1ccc(NC(=O)/C=C/c2cccc(F)c2)cc1  2 nM
16. NS(=O)(=O)c1ccc(NC(=O)/C=C/c2ccccc2OC(F)F)cc1  1.8 nM

What follows are compounds tested against Carbonic anhydrase 12 (Homo sapiens, UniProt O43570) (assay: Inhibition of human recombinant carbonic anhydrase-12 preincubated for 10 mins by stopped-flow CO2 hydration assay).
Carbonic anhydrase 12, sequence (O43570 whole entry): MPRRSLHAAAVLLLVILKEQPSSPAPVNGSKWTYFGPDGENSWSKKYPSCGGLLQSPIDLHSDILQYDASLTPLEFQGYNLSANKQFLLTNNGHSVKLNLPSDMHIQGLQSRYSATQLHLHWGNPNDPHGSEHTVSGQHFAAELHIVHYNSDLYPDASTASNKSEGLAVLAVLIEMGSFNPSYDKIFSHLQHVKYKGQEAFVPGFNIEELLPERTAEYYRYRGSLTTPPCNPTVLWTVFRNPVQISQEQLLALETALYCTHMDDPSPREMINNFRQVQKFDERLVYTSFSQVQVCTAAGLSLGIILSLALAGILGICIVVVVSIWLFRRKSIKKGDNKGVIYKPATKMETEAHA

`NS(=O)(=O)c1ccc(NC(=O)/C=C/c2ccccc2OC(F)F)cc1` gave a Ki of 4.6 nM.

Source: ChEMBL document CHEMBL4043219, “Development of sulfonamides incorporating phenylacrylamido functionalities as carbonic anhydrase isoforms I, II, IX and XII inhibitors” (Bioorg Med Chem, 2017)
